The compounds below were run against T1, Dimer of Gag-Pol polyprotein [489-587] (Human immunodeficiency virus 1, UniProt P12497) (assay: Protease Inhibition Assay). Conditions: not given.
T1 construct: 489-587
Protocol: For determination of IC50 values, HIV-1 protease was added to assay buffer containing inhibitor and the substrate (H-His-Lys-Ala-Arg-Val-Leu- (p-NO2) Phe-Glu-Ala-norleucine-Ser-NH2). The Leu- (p-NO2) Phe bond of the substrate was cleaved by the enzyme, and the substrate and products were separated by reversed-phase HPLC. Absorbance was measured at 220 nm, peak areas were determined, and percentage conversion to product was calculated.

SMILES	IC50 [nM]
O=C1CC(c2ccccc2)(c2ccccc2)OC(=O)C1Sc1ccccc1C1CCCC1 (stereo unspecified) [3-[(2-cyclopentylphenyl)sulfanyl]-4-hydroxy-6,6-diphenyl-5,6-dihydro-2H-pyran-2-one]	14
O=C1CC(CCc2ccccc2)(c2ccccc2)OC(=O)C1Sc1ccccc1C1CCCCC1 (stereo unspecified) [3-[(2-cyclohexylphenyl)sulfanyl]-4-hydroxy-6-phenyl-6-(2-phenylethyl)-5,6-dihydro-2H-pyran-2-one]	32
CC(C)(C)c1ccccc1SC1C(=O)CC(c2ccccc2)(c2ccccc2)OC1=O (stereo unspecified) [3-[(2-tert-Butylphenyl)sulfanyl]-5,6-dihydro-4-hydroxy-6,6-diphenyl-2H-pyran-2-one]	49
O=C1CC2(CCc3ccccc32)OC(=O)C1SCc1ccccc1 (stereo unspecified) [5'-(benzylsulfanyl)-4'-hydroxy-3',6',2,3-tetrahydrospiro[indene-1,2'-pyran]-6'-one]	11800
O=C1CC(c2ccccc2)(c2ccncc2)OC(=O)C1SCCc1ccccc1 (stereo unspecified) [5,6-Dihydro-4-hydroxy-6-phenyl-3-[(2-phenylethyl)thio]-6-pyridin-4-yl-2H-pyran-2-one]	790
O=C1CC(CCCCO)(c2ccccc2)OC(=O)C1SCc1ccccc1 (stereo unspecified) [3-(benzylsulfanyl)-4-hydroxy-6-(4-hydroxybutyl)-6-phenyl-5,6-dihydro-2H-pyran-2-one]	1260
CC(C)c1ccccc1SC1C(=O)CC(CCc2ccccc2)(c2ccccc2)OC1=O (stereo unspecified) [4-hydroxy-6-phenyl-6-(2-phenylethyl)-3-{[2-(propan-2-yl)phenyl]sulfanyl}-5,6-dihydro-2H-pyran-2-one]	14
O=C1CC(c2ccccc2)(c2ccccc2)OC(=O)C1Sc1ccccc1C1CCCCC1 (stereo unspecified) [3-[(2-Cyclohexylphenyl)sulfanyl]-5,6-dihydro-4-hydroxy-6,6-diphenyl-2H-pyran-2-one]	127

Same assay, conditions: pH 4.7; 37 °C

SMILES	IC50 [nM]
CC(C)CCC1(c2ccccc2)CC(=O)C(SCCc2ccccc2)C(=O)O1 (stereo unspecified) [4-hydroxy-6-(3-methylbutyl)-6-phenyl-3-[(2-phenylethyl)sulfanyl]-5,6-dihydro-2H-pyran-2-one]	96
O=C(O)CCC1(c2ccccc2)CC(=O)C(SCCc2ccccc2)C(=O)O1 (stereo unspecified) [3-(3,6-Dihydro-4-hydroxy-6-oxo-2-phenyl-5-[(2-phenylethyl)thio]-2H-pyran-2-yl)propanoic Acid]	1200
O=C1CC(CC2CCCC2)(c2ccccc2)OC(=O)C1SCc1ccccc1 (stereo unspecified) [6-(Cyclopentylmethyl)-5,6-dihydro-4-hydroxy-6-phenyl-3-[(phenylmethyl)thio]-2H-pyran-2-one]	88
O=C1CC(CC2CCCC2)(c2ccccc2)OC(=O)C1SCCc1ccccc1 (stereo unspecified) [6-(cyclopentylmethyl)-4-hydroxy-6-phenyl-3-[(2-phenylethyl)sulfanyl]-5,6-dihydro-2H-pyran-2-one]	510
O=C1CC(c2ccccc2)(c2ccccc2)OC(=O)C1SCc1ccccc1 (stereo unspecified) [5,6-Dihydro-4-hydroxy-6,6-diphenyl-3-[(phenylmethyl)thio]-2H-pyran-2-one]	262
CC(C)CCC1(c2ccccc2)CC(=O)C(SCc2ccccc2)C(=O)O1 (stereo unspecified) [3-(benzylsulfanyl)-4-hydroxy-6-(3-methylbutyl)-6-phenyl-5,6-dihydro-2H-pyran-2-one]	98
CC(C)CCC1(c2ccccc2)CC(=O)C(Sc2ccccc2)C(=O)O1 (stereo unspecified) [5,6-Dihydro-4-hydroxy-6-(3-methylbutyl)-6-phenyl-3-(phenylthio)-2H-pyran-2-one]	1400
CC(C)CCCC1(c2ccccc2)CC(=O)C(SCc2ccccc2)C(=O)O1 (stereo unspecified) [3-(benzylsulfanyl)-4-hydroxy-6-(4-methylpentyl)-6-phenyl-5,6-dihydro-2H-pyran-2-one]	183
